Columns and labels:
RXF 393 = test: panel of 60 human tumor cell lines, growth inhibition (Renal Cancer); conditions: Homo sapiens
BT-549 = test: panel of 60 human tumor cell lines, growth inhibition (Breast Cancer); conditions: Homo sapiens
HCC-2998 = test: panel of 60 human tumor cell lines, growth inhibition (Colon Cancer); conditions: Homo sapiens
UO-31 = test: panel of 60 human tumor cell lines, growth inhibition (Renal Cancer); conditions: Homo sapiens
SN12C = test: as above; conditions: Homo sapiens
SNB-75 = test: panel of 60 human tumor cell lines, growth inhibition (CNS Cancer); conditions: Homo sapiens
KM12 = test: panel of 60 human tumor cell lines, growth inhibition (Colon Cancer)
SF-539 = test: panel of 60 human tumor cell lines, growth inhibition (CNS Cancer); conditions: Homo sapiens
SR = test: panel of 60 human tumor cell lines, growth inhibition (Leukemia); conditions: Homo sapiens
SNB-19 = test: panel of 60 human tumor cell lines, growth inhibition (CNS Cancer); conditions: Homo sapiens
SF-295 = test: as above; conditions: Homo sapiens
NCI/ADR-RES = test: panel of 60 human tumor cell lines, growth inhibition (Ovarian Cancer); conditions: Homo sapiens
HCT-116 = test: panel of 60 human tumor cell lines, growth inhibition (Colon Cancer); conditions: Homo sapiens
SK-MEL-28 = test: panel of 60 human tumor cell lines, growth inhibition (Melanoma); conditions: Homo sapiens
UACC-62 = test: as above; conditions: Homo sapiens
NCI-H322M = test: panel of 60 human tumor cell lines, growth inhibition (Non-Small Cell Lung Cancer); conditions: Homo sapiens
COLO 205 = test: panel of 60 human tumor cell lines, growth inhibition (Colon Cancer); conditions: Homo sapiens
ACHN = test: panel of 60 human tumor cell lines, growth inhibition (Renal Cancer); conditions: Homo sapiens
MDA-MB-435 = test: panel of 60 human tumor cell lines, growth inhibition (Melanoma); conditions: Homo sapiens

C=C1C(=O)O[C@H]2[C@H]1CC/C(COC(=O)OCCCN1CCCCC1)=C\CC[C@@]1(C)O[C@@H]21 [JVM 2-26]
GI50 (RXF 393; RXF 393, RXF 393): 2.35 µM | CC50 (RXF 393; RXF 393, read-out: LC50): 34 µM | IC (TGI) (RXF 393; RXF 393, read-out: TGI): 8.65 µM | GI50 (BT-549; BT-549): 3.12 µM | CC50 (BT-549; BT-549, read-out: LC50): 38.7 µM | IC (TGI) (BT-549; BT-549, read-out: TGI): 15 µM | GI50 (HCC-2998; HCC 2998): 14.4 µM | CC50 (HCC-2998; HCC 2998, read-out: LC50): 60.1 µM | IC (TGI) (HCC-2998; HCC 2998, read-out: TGI): 19.4 µM | GI50 (UO-31; UO-31): 2.36 µM | CC50 (UO-31; UO-31, read-out: LC50): 46.3 µM | IC (TGI) (UO-31; UO-31, read-out: TGI): 12.5 µM | GI50 (SN12C): 8.41 µM | CC50 (SN12C; read-out: LC50): 55.2 µM | IC (TGI) (SN12C; read-out: TGI): 22.7 µM | GI50 (SNB-75; SNB-75): 2.59 µM | CC50 (SNB-75; SNB-75, read-out: LC50): 40.6 µM | IC (TGI) (SNB-75; SNB-75, read-out: TGI): 16.5 µM | GI50 (KM12; Homo sapiens, KM12): 15.5 µM | CC50 (KM12; Homo sapiens, KM12, read-out: LC50): 63.3 µM | TGI (KM12; KM12): 3.13E−5 | Percent Growth (KM12; KM12, Log10 Concentration −4.0): −83% | Percent Growth (KM12; KM12, Log10 Concentration −5.0): 81% | Percent Growth (KM12; KM12, Log10 Concentration −6.0): 97% | Percent Growth (KM12; KM12, Log10 Concentration −7.0): 94% | Percent Growth (KM12; KM12, Log10 Concentration −8.0): 95% | GI50 (SF-539; SF-539): 2.39 µM | CC50 (SF-539; SF-539, read-out: LC50): 32.1 µM | IC (TGI) (SF-539; SF-539, read-out: TGI): 8.7 µM | GI50 (SR): 2.12 µM | CC50 (SR; read-out: LC50): 83.9 µM | IC (TGI) (SR; read-out: TGI): 10.2 µM | GI50 (SNB-19; SNB-19): 13.5 µM | CC50 (SNB-19; SNB-19, read-out: LC50): 56.3 µM | IC (TGI) (SNB-19; SNB-19, read-out: TGI): 27.5 µM | GI50 (SF-295; SF-295): 15.4 µM | CC50 (SF-295; SF-295, read-out: LC50): 73.2 µM | IC (TGI) (SF-295; SF-295, read-out: TGI): 33.5 µM | GI50 (NCI/ADR-RES): 17.2 µM | CC50 (NCI/ADR-RES; read-out: LC50): > 100 µM | IC (TGI) (NCI/ADR-RES; read-out: TGI): 45.8 µM | GI50 (HCT-116; HCT-116, HCT-116): 2.07 µM | CC50 (HCT-116; HCT-116, read-out: LC50): 23.9 µM | IC (TGI) (HCT-116; HCT-116, read-out: TGI): 6.42 µM | GI50 (SK-MEL-28; SK-MEL-28): 3.83 µM | CC50 (SK-MEL-28; SK-MEL-28, read-out: LC50): 41 µM | IC (TGI) (SK-MEL-28; SK-MEL-28, read-out: TGI): 15.5 µM | GI50 (UACC-62; UACC-62): 8.05 µM | CC50 (UACC-62; UACC-62, read-out: LC50): 47.1 µM | IC (TGI) (UACC-62; UACC-62, read-out: TGI): 11 µM | GI50 (NCI-H322M): 17.2 µM | CC50 (NCI-H322M; read-out: LC50): > 100 µM | IC (TGI) (NCI-H322M; read-out: TGI): 54.4 µM | GI50 (COLO 205; COLO 205): 1.7 µM | CC50 (COLO 205; COLO 205, read-out: LC50): 7.07 µM | IC (TGI) (COLO 205; COLO 205, read-out: TGI): 3.47 µM | GI50 (ACHN): 2.14 µM | CC50 (ACHN; read-out: LC50): 31.5 µM | IC (TGI) (ACHN; read-out: TGI): 8.06 µM | GI50 (MDA-MB-435; MDA-MB-435): 2.99 µM | CC50 (MDA-MB-435; MDA-MB-435, read-out: LC50): 38.5 µM | IC (TGI) (MDA-MB-435; MDA-MB-435, read-out: TGI): 13.2 µM
